Experimental data as given in patent US20240279278A1, “NMU RECEPTOR 2 AGONISTS” (Boehringer Ingelheim International GmbH, priority 2023, published 2024).
Starred links: 1 amine or outer side, 2 acyl side, 3 side chain; linkers in the order of their positions; H or OH if unused. Non-standard residues stand in square brackets, D forms with d. Residues, ends and D or L forms follow the SMILES beside them. *: point of attachment. Pipz(1-CH2CO,4-CH2CH2NH) = O=C(CN1CCN(CCN[*:1])CC1)[*:2]; γGlu = O=C(O)[C@H](CCC(=O)[*:2])N[*:1]; Stearoyl = CCCCCCCCCCCCCCCCCC(=O)*; X1 = CN(CC(=O)C(=O)[*:2])[*:1]; NMeL = CN[C@@H](CC(C)C)C(=O)O; Nle = CCCC[C@H](N)C(=O)O; Orn = NCCC[C@H](N)C(=O)O; Sar = CNCC(=O)O

Key:
human NMUR2 receptor = human NMUR2 receptor (Homo sapiens, UniProt Q9GZQ4); test: IP1 Gq HTRF assay, activation of human NMUR2 in buffer; assay type: cell-based; design: expressed in transfected cells; host or cells: CHO-K1; settings: selectivity for NMUR2 over NMUR1 from IP1 assay in buffer (Example 3)
Outline: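 CHO-K1 cells stably expressing human NMUR1 or NMUR2, seeded 24 h before assay, stimulated with peptide agonists (8-point dose-response, 1% DMSO final) in HEPES/HBSS buffer with 50 mM LiCl and 0.1% BSA, pH 7.4, 1 h at 37 °C. IP1 accumulation read by HTRF competition (665/620 nm); EC50 from 4-parameter sigmoidal fit.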

in vivo = test: in vivo; design: species or system NMRI mice; settings: male, NMRI, mouse, iv
Procedure: Example 5: Pharmacokinetics Intravenous (iv) PK in Mouse Pharmacokinetic parameters of the test compounds were determined after intravenous administration to Naval Medical Research Institute (NMRI) mice. Male NMRI mice were obtained either from Charles River (Germany) or from Janvier (France) weighing approximately 30 g to 40 g. Mice were housed in standard cages with light cycle of 12-hour dark and 12-hour light. Standardized food and water were offered ad libitum to the animals during the whole experimental period. The respective peptide was dissolved in 50 mM phosphate buffer (pH 7.4) containing 3.5% mannitol. Intravenous doses of 30 nmol/kg were given via a tail vein. Serial blood samples were collected from the vena saphena into tubes containing EDTA as anticoagulant at different time points up to 48 hours post dosing. After centrifugation for approximately 5 minutes, plasma samples were transferred to 96-well Polymerase Chain Reaction (PCR) plates, immediately frozen and kept at approximately −20° C. until analyzed for plasma concentration by liquid chromatography mass spectrometry (LC-MS/MS). Individual plasma concentration-time profiles were analyzed by a non-compartmental approach, and the resulting pharmacokinetic parameters were determined.

human NMUR2 receptor, sequence (Q9GZQ4 whole entry): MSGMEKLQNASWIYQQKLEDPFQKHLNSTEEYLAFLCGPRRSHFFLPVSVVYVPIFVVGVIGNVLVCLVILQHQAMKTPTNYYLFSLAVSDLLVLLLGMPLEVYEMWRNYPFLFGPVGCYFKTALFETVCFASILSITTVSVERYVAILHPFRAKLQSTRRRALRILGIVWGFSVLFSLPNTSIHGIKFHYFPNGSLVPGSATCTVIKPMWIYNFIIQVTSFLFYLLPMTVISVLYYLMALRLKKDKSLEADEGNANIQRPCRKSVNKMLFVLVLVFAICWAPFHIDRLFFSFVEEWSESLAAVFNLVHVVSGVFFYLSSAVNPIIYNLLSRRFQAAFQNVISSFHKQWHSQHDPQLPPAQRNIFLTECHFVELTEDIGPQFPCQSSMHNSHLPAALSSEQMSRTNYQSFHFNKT

SMILES	EC50 (hNMUR1)/EC50 (hNMUR2) (human NMUR2 receptor)	MRT (in vivo)
CCCCCCCCCCCCCCCCCC(=O)N[C@@H](CCC(=O)N[C@@H](CCC(=O)N[C@@H](CCC(=O)N(C)CC(=O)N(C)CC(=O)N(C)CC(=O)N(C)CC(=O)N(C)CC(=O)N(C)CC(=O)N(C)CC(=O)N(C)CC(=O)N(C)CC(=O)N(C)CC(=O)N(C)CC(=O)N(C)CC(=O)N(C)CC(=O)N(C)CC(=O)N(C)CC(=O)NCCN1CCN(CC(=O)N[C@@H](Cc2ccc(O)cc2)C(=O)N[C@@H](Cc2ccccc2)C(=O)N(C)[C@@H](CC(C)C)C(=O)N[C@@H](CCCC)C(=O)N[C@@H](CCCNC(=N)N)C(=O)N2CCC[C@H]2C(=O)N[C@@H](CCCNC(=N)N)C(=O)NCC(N)=O)CC1)C(=O)O)C(=O)O)C(=O)O [Ref. 1, C18A-gGlu3-Sar15-AEPipAc-Tyr-Phe-NMeLeu-Nle-Arg-Pro-Arg-Gly-NH2, reference compound] (HELM PEPTIDE1{[CCCCCCCCCCCCCCCCCC(=O)[*:2]].[gGlu].[gGlu].[gGlu].[Sar].[Sar].[Sar].[Sar].[Sar].[Sar].[Sar].[Sar].[Sar].[Sar].[Sar].[Sar].[Sar].[Sar].[Sar].[O=C(CN1CCN(CCN[*:1])CC1)[*:2]].Y.F.[meL].[Nle].R.P.R.G.[am]}$$$$V2.0)	4.3	0.8 h
CCCC[C@H](NC(=O)[C@H](CC(C)C)N(C)C(=O)[C@H](Cc1ccccc1)NC(=O)[C@H](Cc1ccc(O)cc1)NC(=O)CN1CCN(CCNC(=O)CN(C)C(=O)CN(C)C(=O)CN(C)C(=O)CN(C)C(=O)CN(C)C(=O)CN(C)C(=O)CN(C)C(=O)CN(C)C(=O)CN(C)C(=O)CN(C)C(=O)CN(C)C(=O)CN(C)C(=O)CN(C)C(=O)CN(C)C(=O)CN(C)C(=O)CC[C@H](NC(=O)CC[C@H](NC(=O)CC[C@H](NC(=O)CCCCCCCCCCCCCCCCC(=O)O)C(=O)O)C(=O)O)C(=O)O)CC1)C(=O)N[C@@H](CCCNC(=N)N)C(=O)N1CCC[C@H]1C(=O)N[C@@H](CCCNC(=N)N)C(=O)NCC(N)=O [Ref. 2, C18DA-gGlu3-Sar15-AEPipAc-Tyr-Phe-Leu-Nle-Arg-Pro-Arg-Gly-NH2, reference compound] (HELM PEPTIDE1{[O=C(O)CCCCCCCCCCCCCCCCC(=O)[*:2]].[gGlu].[gGlu].[gGlu].[Sar].[Sar].[Sar].[Sar].[Sar].[Sar].[Sar].[Sar].[Sar].[Sar].[Sar].[Sar].[Sar].[Sar].[Sar].[O=C(CN1CCN(CCN[*:1])CC1)[*:2]].Y.F.[meL].[Nle].R.P.R.G.[am]}$$$$V2.0)	–	7.9 h
CCCCCCCCCCCCCCCCCCCC(=O)N[C@@H](CCC(=O)N[C@@H](CCC(=O)N[C@@H](CCC(=O)N(C)CC(=O)N(C)CC(=O)N(C)CC(=O)N(C)CC(=O)N(C)CC(=O)N(C)CC(=O)N(C)CC(=O)N(C)CC(=O)N(C)CC(=O)N(C)CC(=O)N(C)CC(=O)N(C)CC(=O)N(C)CC(=O)N(C)CC(=O)N(C)CC(=O)NCCN1CCN(CC(=O)N[C@@H](Cc2ccc(O)cc2)C(=O)N[C@@H](Cc2ccccc2)C(=O)N(C)[C@@H](CC(C)C)C(=O)N[C@@H](CCCC)C(=O)N[C@@H](CCCNC(=N)N)C(=O)N2CCC[C@H]2C(=O)N[C@@H](CCCNC(=N)N)C(=O)NCC(N)=O)CC1)C(=O)O)C(=O)O)C(=O)O [Ref. 3, C20A-gGlu3-Sar15-AEPipAc-Tyr-Phe-NMeLeu-Nle-Orn-Pro-Arg-Gly-NH2, reference compound] (HELM PEPTIDE1{[CCCCCCCCCCCCCCCCCCCC(=O)[*:2]].[gGlu].[gGlu].[gGlu].[Sar].[Sar].[Sar].[Sar].[Sar].[Sar].[Sar].[Sar].[Sar].[Sar].[Sar].[Sar].[Sar].[Sar].[Sar].[O=C(CN1CCN(CCN[*:1])CC1)[*:2]].Y.F.[meL].[Nle].R.P.R.G.[am]}$$$$V2.0)	6.1	1.7 h
CCCC[C@H](NC(=O)[C@H](CC(C)C)N(C)C(=O)[C@H](Cc1ccccc1)NC(=O)[C@H](Cc1ccc(O)cc1)NC(=O)CN1CCN(CCNC(=O)CN(C)C(=O)CN(C)C(=O)CN(C)C(=O)CN(C)C(=O)CN(C)C(=O)CN(C)C(=O)CN(C)C(=O)CN(C)C(=O)CN(C)C(=O)CN(C)C(=O)CN(C)C(=O)CN(C)C(=O)CN(C)C(=O)CN(C)C(=O)CN(C)C(=O)CC[C@H](NC(=O)CC[C@H](NC(=O)CC[C@H](NC(=O)CCCCCCCCCCCCCCCCCCC(=O)O)C(=O)O)C(=O)O)C(=O)O)CC1)C(=O)N[C@@H](CCCNC(=N)N)C(=O)N1CCC[C@H]1C(=O)N[C@@H](CCCNC(=N)N)C(=O)NCC(N)=O [Ref. 4, C20DA-gGlu3-Sar15-AEPipAc-Tyr-Phe-Leu-Nle-Orn-Pro-Arg-Gly-NH2, reference compound] (HELM PEPTIDE1{[O=C(O)CCCCCCCCCCCCCCCCCCC(=O)[*:2]].[gGlu].[gGlu].[gGlu].[Sar].[Sar].[Sar].[Sar].[Sar].[Sar].[Sar].[Sar].[Sar].[Sar].[Sar].[Sar].[Sar].[Sar].[Sar].[O=C(CN1CCN(CCN[*:1])CC1)[*:2]].Y.F.[meL].[Nle].R.P.R.G.[am]}$$$$V2.0)	25.0	22.5 h
CCCCCCCCCCCCCCCCCC(=O)N[C@@H](CCC(=O)N[C@@H](CCC(=O)N[C@@H](CCC(=O)N(C)CC(=O)C(=O)N[C@@H](CCC(=O)N(C)CC(=O)N(C)CC(=O)N(C)CC(=O)N(C)CC(=O)N(C)CC(=O)N(C)CC(=O)N(C)CC(=O)N(C)CC(=O)N(C)CC(=O)NCCN1CCN(CC(=O)N[C@@H](Cc2ccc(O)cc2)C(=O)N[C@@H](Cc2ccccc2)C(=O)N(C)[C@@H](CC(C)C)C(=O)N[C@@H](CCCC)C(=O)N[C@@H](CCCN)C(=O)N2CCC[C@H]2C(=O)N[C@@H](CCCNC(=N)N)C(=O)NCC(N)=O)CC1)C(=O)O)C(=O)O)C(=O)O)C(=O)O [Ref. 5, C18A-gGlu3-Sar12-AEPipAc-Tyr-Phe-NMeLeu-Nle-Orn-Pro-Arg-Gly-NH2, reference compound] ({Stearoyl-γGlu-γGlu-γGlu}-[X1][γGlu][Sar][Sar][Sar][Sar][Sar][Sar][Sar][Sar][Sar][Pipz(1-CH2CO,4-CH2CH2NH)]YF[NMeL][Nle][Orn]PRG-NH2)	7.9	2.2 h
CCCC[C@H](NC(=O)[C@H](CC(C)C)NC(=O)[C@H](Cc1ccccc1)NC(=O)[C@H](Cc1ccc(O)cc1)NC(=O)CN1CCN(CCNC(=O)CN(C)C(=O)CN(C)C(=O)CN(C)C(=O)CN(C)C(=O)CN(C)C(=O)CN(C)C(=O)CN(C)C(=O)CN(C)C(=O)CN(C)C(=O)CC[C@H](NC(=O)C(=O)CN(C)C(=O)CC[C@H](NC(=O)CC[C@H](NC(=O)CC[C@H](NC(=O)CCCCCCCCCCCCCCCCC(=O)O)C(=O)O)C(=O)O)C(=O)O)C(=O)O)CC1)C(=O)N[C@@H](CCCN)C(=O)N1CCC[C@H]1C(=O)N[C@@H](CCCNC(=N)N)C(=O)NCC(N)=O [Ref. 6, C18DA-gGlu3-Sar12-AEPipAc-Tyr-Phe-Leu-Nle-Orn-Pro-Arg-Gly-NH2, reference compound]	32.4	4.2 h
